Where two headings read alike, the source gives them in different places. Where no end group is shown, it is not given here. [ ]: non-standard residue; d: D form. The star is where a group is joined. Lys(Me2) = CN(C)CCCC[C@H](N)C(=O)O; Myristyl = CCCCCCCCCCCCCC*
Tests used:
SARS-CoV-2 [1] = format: cell-based
SARS-CoV-2 spike protein [2] = molecular target: T1, SARS-CoV-2 spike protein (Severe acute respiratory syndrome coronavirus 2, UniProt P0DTC2); format: cell-based
T1 construct: spike protein 51 (Glu14-Ser680) containing a poly-histidine tag at the C-terminus; poly-histidine (C)

SARS-CoV-2 [3] = format: cell-based; remark: listed apart in the source
[4] = molecular target: ACE2 and SARS-CoV-2 Spike (Severe acute respiratory syndrome coronavirus 2, UniProt P0DTC2); format: cell-based
LSD1 [5] = molecular target: T2, LSD1 (Homo sapiens, UniProt O60341); assay: In vitro LSD1 activity assay (demethylation of ACE2 peptide at lysine 31); format: biochemical
ACE2-importin complex = format: binding
[6] = test system: ACE2, SARS-CoV-2 nucleocapsid and Spike proteins; format: cell-based
SARS-CoV-2 [7] = test system: SARS-CoV-2; design: species or system golden Syrian Hamsters; details: hamster, in vivo
SARS-CoV-2 Spike protein [8] = test system: SARS-CoV-2 Spike protein; design: species or system golden Syrian Hamsters; details: hamster, in vivo
ACE2, LSD1 = format: cell-based; details: Caco-2 cells
ACE2unmod and IMPα1 = molecular target: T3, ACE2unmod and IMPα1 (Homo sapiens, UniProt P52292); format: cell-based; design: dose or concentration left out as unconfirmed; details: H1299 cells
T3 construct: endogenous in cells; host or cells: H1299

[9] = test system: SARS-Cov-2 induced lung pathology; design: species or system golden Syrian Hamsters; details: hamster, in vivo
[10] = Hamster tolerance (animal safety) study; format: in vivo, golden Syrian Hamsters; details: escalating IP doses
Experimental: Female golden Syrian Hamsters (6-8 weeks) were obtained from Janiver Labs (Le Genest-Saint-Isle, France) and studies conducted by Oncodesign® Biotechnology (Dijon Cedex, France). For tolerance experiments, animals (3 per group) received escalating doses of P604 ACE2 peptide inhibitor or ACE2i peptide via intraperitoneal injection. Doses were escalated daily (day 1: 25 mg/kg, day 2: 50 mg/kg, day 3: 100 mg/kg) and animals monitored prior to culling on day 4. Animal viability, behaviour and rectal temperature were recorded every 2 hours over a 6 hour period post-administration and body weights were measured daily. For P604 ACE2 peptide inhibitor efficacy studies, animals (8 per group) were treated with vehicle (IP, daily day 0, 1 and 2) (Sodium chloride 0.9%, Osalia, Paris, France) or P604 ACE2 peptide inhibitor over a 2-day period via intravenous (IV, 15 mg/kg, day 0 once and day 1 twice, 8 hours apart) or intraperitoneal (IP, 100 mg/kg, daily Day 0, 1, 2) injection. For P604 ACE2 peptide inhibitor efficacy studies, animals were treated with vehicle or P604 ACE2 peptide inhibitor (30 mg/kg, IN, twice daily, Day 0, 1 8 hours apart).

perforin and CD3 = format: in vivo, golden Syrian Hamsters; details: hamster, IP or IV routes
SARS-CoV-2 [11] = test system: SARS-CoV-2; design: species or system golden Syrian Hamsters; details: hamster, in vivo; remark: listed apart in the source
LSD1 [12] = molecular target: T2, LSD1

STIEEQAKTFLDK [ACE2-02]
decrease of viral RNA in infected cells (SARS-CoV-2 [1]): 2 fold | reduction of infection (qRT-PCR) in cell culture supernatants (SARS-CoV-2 [1]): 4.6 fold | inhibition of Spike protein binding to the cell surface (SARS-CoV-2 spike protein [2]): significantly inhibit | reduction in viral load (infectious viral titers, TCID50) (SARS-CoV-2 [3]): 3.2 fold | interaction between ACE2 and spike protein (ACE2/spike complexes at the cell surface) [4]: further disrupted

QAKTFLD{Lys(Me2)}FNHEAED (QAKTFLD[Lys(Me2)]FNHEAED) [ACE2me2]
de-methylation at lysine 31 by LSD1 (LSD1 [5]): efficiently de-methylated

Myristyl-TGIRDRKKKNKARS-OH (SMILES CCCCCCCCCCCCCCN[C@H](C(=O)NCC(=O)N[C@H](C(=O)N[C@@H](CCCNC(=N)N)C(=O)N[C@@H](CC(=O)O)C(=O)N[C@@H](CCCNC(=N)N)C(=O)N[C@@H](CCCCN)C(=O)N[C@@H](CCCCN)C(=O)N[C@@H](CCCCN)C(=O)N[C@@H](CC(N)=O)C(=O)N[C@@H](CCCCN)C(=O)N[C@@H](C)C(=O)N[C@@H](CCCNC(=N)N)C(=O)N[C@@H](CO)C(=O)O)[C@@H](C)CC)[C@@H](C)O) [P604]
inhibition of the ACE2-importin complex in vitro (ACE2-importin complex): directly inhibiting the ACE2-importin complex | expression of Spike protein of SARS-CoV-2 [6]: significantly inhibit and downregulate | expression of host ACE2 [6]: significantly inhibit and downregulate | expression of nucleocapsid protein of SARS-CoV-2 [6]: significantly inhibit and downregulate | viral RNA in the lungs (SARS-CoV-2 [7]): Significant reductions | decrease in viral load normalized to the vehicle group (SARS-CoV-2 [7]; ip, 100 mg/kg): 96% | decrease in viral load normalized to the vehicle group (SARS-CoV-2 [7]; iv, 15 mg/kg): 88% | overall intensity of Spike protein signal in positive cells (SARS-CoV-2 Spike protein [8]): significantly reduced | population of cells in bronchial lung sections positive for SARS-CoV-2 spike protein (SARS-CoV-2 Spike protein [8]): significantly reduced | PCC(r) of LSD1 and ACE2 (co-localisation) (ACE2, LSD1): significantly abrogated | ACE2 expression on the cell surface (ACE2, LSD1; 25 mM/50 mM): de-stabilizes ACE2 expression on the cell surface | cell surface LSD1 expression (ACE2, LSD1; 25 mM/50 mM): reducing cell surface LSD1 expression | ACE2unmod-IMP1 interaction (DUOLINK) (ACE2unmod and IMPα1): significantly all but abrogated | changes in the bronchioles or vessels (H&E) [9]: minimal changes | mean cumulative histopathological scores [9]: substantially lower than the vehicle group | toxicity in animal safety studies [10]: minimal toxicity | CD3+ cells expressing perforin in lung (perforin and CD3): induce more CD3+ cells to express perforin | cells positive for perforin in lung (perforin and CD3): significantly induce higher cells positive for perforin | lung infectious titers (TCID50 assay) (SARS-CoV-2 [11]): reduced

NNCCc1ccccc1 [phenelzine]
effect on ACE2 transcription (LSD1 [12]): minimal effect | expression and co-localization of LSD1 with ACE2 and TMRPSS2 (LSD1 [12]): abrogated

— patent US20240352072A1, “NOVEL COMPOSITIONS AND METHODS FOR TREATING CORONAVIRUS INFECTIONS” (priority 2021, published 2024)
